Patent US7807845B2, “Resistance-repellent retroviral protease inhibitors” (priority 2004, dated 2010)

Experiments:
[1] = test system: HIVmutant10 (16 mutations); test: Antiviral assay in MT-4 cells (MTT), mutant 10 virus; format: cell-based, HIV; conditions: Human immunodeficiency virus 1, MT4, 120 h, read-out: IC50 Mutant 10
Method: (§1) MT-4 cells were obtained from the AIDS Research and Reference Reagent Program (ARRRP, Division of AIDS, NIAID, NIH: MT-4 from Dr. D. Richman). Cells were propagated in RPMI 1640 supplemented with 10% fetal bovine serum, 50U of penicillin and 50 μg of streptomycin per ml (Invitrogen, Carlsbad Calif.). The following HIV viruses were used for testing of antiviral potency of compounds: WT=HIVHXB2; recombinant HIVHXB2 virus from drug resistant patient isolates; HIVmutant10 (16 mutations); HIVmutant8 (14 mutations); HIVmutant9 (10 mutations).
(§2) The potency of test compound was determined as previously described (ref 1-3) with minor modifications. MT-4 cells (1.5×10^4/ml) were exposed to 200 50 % tissue culture infective doses (TCID50) of viruses in the presence of various concentrations of test compound in 96 well microtiter plates and incubated at 37° C. for 5 days. 3-(4,5-dimethylthiazol-2-yl)-2,5-diphenytetrazolium bromide (MTT) solution was added to a final concentration of 0.75 mg/ml, and plates were incubated 1 hour. After incubation cells were dissolved in isopropanol/Triton-X 100/HCl (1000:50:25) solution. Absorbance was monitored in a microplate reader (Spectramax, Molecular Devices) at 540 nm and 690 nm. Cytotoxicity of compounds was tested in a similar assay in the absence of virus.

[2] = target: T1, wild type HIV PR (Human immunodeficiency virus type 1 group M subtype B, UniProt P04585); test: HIV PR inhibition assay, wild type; format: biochemical
T1 construct: Recombinant wild type and mutant HIV PRs were expressed using pET21 vector (Novagen) in E. coli cells; made in house
Method: (§3) Expression and purification of WT and mutant HIV PR. Recombinant wild type and mutant HIV PRs were expressed using pET21 vector (Novagen) in E. coli cells, and purified and refolded as described previously (Gulnik et al, 1995). The cells were resuspended in 50 mM tris-HCl buffer, pH 8.0, 25 mM NaCl, 0.2% β-mercaptoethanol (buffer A), sonicated and centrifuged. Inclusion bodies were washed first with buffer A, then with buffer A containing respectively 0.1% Triton X-100, 1 M NaCl, 1 M urea, and finally with buffer A alone. Purified inclusion bodies were solubilized by addition of buffer A containing 8 M urea at room temperature. The solution was clarified by centrifugation and loaded onto 2.6×9.5 cm Q-Sepharose column. Flow-through fractions were collected and dialyzed against 3 changes of refolding buffer, which consists of 25 mM Na-phosphate, pH 7.0, 25 mM NaCl, 0.2% β-mercaptoethanol and 10% glycerol, aliquoted and stored at −80° C.
(§4) Inhibition constants were determined using the fluorogenic substrate ArgGlu(EDANS)[…]DABCYL)Arg (Amichem, USA). HIV Protease was preincubated for 0.5-1 min at ambient temperature on a 96 well plate with different concentrations of inhibitor in 0.05 M sodium phosphate buffer, pH 6.5, containing 20 mM NaCl, 2 mM DTT and 0.01% Tween-20. The reaction was initiated by the addition of substrate. Final enzyme concentration was 2-5 nM for WT and 2-30 nM for mutants. Substrate concentration was 20 uM and DMSO concentration 2%. The increase in fluorescence intensity at the emission maximum of 520 nm (excitation wavelength 340 nm, cut-off filter 495 nm) was monitored as a function of time using a Spectramax Gemini fluorescence plate reader (Molecular Devices, CA USA). The initial rate of hydrolysis was calculated by first-degree polynomial fit using SoftMAX operating software. Data were fitted to the Michaelis-Menten equation for competitive inhibitors. For tight-binding inhibitors the data were fitted by nonlinear regression analysis to the equation V=V0/2Et({[Ki(1+S/Km)+It−Et]^2+4Ki(1+S/Km)Et}^1/2−[Ki(1+S/Km)+It−Et]) (Williams and Morrison, 1979) with the program GraFit, version 5 (Erithacus Software Limited, UK), where V and V0 are initial velocities with and without inhibitor, Km is the Michaelis-Menten constant and S, Et and It are the concentrations of substrate, active enzyme and inhibitor respectively.

[3] = target: mutant HIV PR (Mutant 8) (Human immunodeficiency virus type 1 group M subtype B, UniProt P04585); test: HIV PR inhibition assay, Mutant 8; format: biochemical; conditions: read-out: Ki Mutant 8; recombinant mutant HIV PR, fluorogenic substrate, pH 6.5
Method: as §3, §4

[4] = test system: HIVmutant8 (14 mutations); test: Antiviral assay in MT-4 cells (MTT), mutant 8 virus; format: cell-based, HIV; conditions: Human immunodeficiency virus 1, MT4, 120 h, read-out: IC50 Mutant 8
Method: as §1, §2

[5] = target: mutant HIV PR (Mutant 9) (Human immunodeficiency virus type 1 group M subtype B, UniProt P04585); test: HIV PR inhibition assay, Mutant 9; format: biochemical; conditions: read-out: Ki Mutant 9; recombinant mutant HIV PR, fluorogenic substrate, pH 6.5
Method: as §3, §4

[6] = test system: HIVmutant9 (10 mutations); test: Antiviral assay in MT-4 cells (MTT), mutant 9 virus; format: cell-based, HIV; conditions: Human immunodeficiency virus 1, MT4, 120 h, read-out: IC50 Mutant 9
Method: as §1, §2

[7] = test system: WT=HIVHXB2; test: Antiviral assay in MT-4 cells (MTT), WT virus; format: cell-based, HIV; conditions: Human immunodeficiency virus 1, MT4, 120 h, HIVHXB2, 5 days
Method: as §1, §2

[8] = target: mutant HIV PR (Mutant 10) (Human immunodeficiency virus type 1 group M subtype B, UniProt P04585); test: HIV PR inhibition assay, Mutant 10; format: biochemical; conditions: read-out: Ki Mutant 10; recombinant mutant HIV PR, fluorogenic substrate, pH 6.5
Method: as §3, §4

## CC(C)CC(C)NC=C1C(=O)Nc2ccc(S(=O)(=O)N(CC(C)C)CC(O)C(Cc3ccccc3)NC(=O)OC3COC4OCCC34)cc21 (centres unmarked) [Compound 104]
[1]
  IC50: 0.074 µM
[2]
  Ki: 0.00017 µM
[3]
  Ki: < 0.0003 µM
[4]
  IC50: 0.033 µM
[5]
  Ki: 0.00025 µM
[6]
  IC50: 0.016 µM
[7]
  IC50: 0.007 µM
[8]
  Ki: 0.0013 µM

## CC(C)CCNC=C1C(=O)Nc2ccc(S(=O)(=O)N(CC(C)C)CC(O)C(Cc3ccccc3)NC(=O)OC3COC4OCCC34)cc21 (centres unmarked) [Compound 66, [1-Benzyl-2-hydroxy-3-(isobutyl-{3-[(3-methyl-butylamino)-methylene]-2-oxo-2,3-dihydro-1H-indole-5-sulfonyl}-amino)-propyl]-carbamic acid hexahydro-furo[2,3-b]furan-3-yl ester]
[1]
  IC50: 0.039 µM
[2]
  Ki: < 0.0001 µM
[3]
  Ki: < 0.0003 µM
[4]
  IC50: 0.026 µM
[5]
  Ki: < 0.0001 µM
[7]
  IC50: 0.012 µM
[8]
  Ki: < 0.001 µM

## CC(C)CN(CC(O)C(Cc1ccccc1)NC(=O)OC1COC2OCCC12)S(=O)(=O)c1ccc2c(c1)C(=CNCC1CCCCC1)C(=O)N2 (centres unmarked) [Compound 72, [1-Benzyl-3-({3-[(cyclohexylmethyl-amino)-methylene]-2-oxo-2,3-dihydro-1H-indole-5-sulfonyl}-isobutyl-amino)-2-hydroxy-propyl]-carbamic acid hexahydro-furo[2,3-b]furan-3-yl ester]
[1]
  IC50: 0.04 µM
[2]
  Ki: < 0.0001 µM
[3]
  Ki: < 0.0003 µM
[4]
  IC50: 0.027 µM
[5]
  Ki: < 0.0001 µM
[6]
  IC50: 0.009 µM
[7]
  IC50: 0.0097 µM
[8]
  Ki: < 0.001 µM

## CC(C)CN(CC(O)C(Cc1ccccc1)NC(=O)OC1COC2OCCC12)S(=O)(=O)c1ccc2c(c1)C(=CNCC1CC1)C(=O)N2 (centres unmarked) [Compound 101]
[1]
  IC50: 0.055 µM
[2]
  Ki: 0.00011 µM
[3]
  Ki: < 0.0003 µM
[4]
  IC50: 0.031 µM
[5]
  Ki: 0.00019 µM
[6]
  IC50: 0.022 µM
[7]
  IC50: 0.02 µM
[8]
  Ki: < 0.001 µM

## CC(C)CN(C=C1C(=O)Nc2ccc(S(=O)(=O)N(CC(C)C)CC(O)C(Cc3ccccc3)NC(=O)OC3COC4OCCC34)cc21)CC(C)C (centres unmarked) [Compound 113]
[1]
  IC50: 0.09 µM
[2]
  Ki: < 0.0001 µM
[3]
  Ki: < 0.0003 µM
[4]
  IC50: 0.034 µM
[5]
  Ki: 0.00021 µM
[6]
  IC50: 0.023 µM
[7]
  IC50: 0.008 µM
[8]
  Ki: 0.0029 µM

## CCCCNC=C1C(=O)Nc2ccc(S(=O)(=O)N(CC(C)C)CC(O)C(Cc3ccccc3)NC(=O)OC3COC4OCCC34)cc21 (centres unmarked) [Compound 57, {1-Benzyl-3-[(3-butylaminomethylene-2-oxo-2,3-dihydro-1H-indole-5-sulfonyl)-isobutyl-amino]-2-hydroxy-propyl}-carbamic acid hexahydro-furo[2,3-b]furan-3-yl ester]
[1]
  IC50: 0.04 µM
[2]
  Ki: < 0.0001 µM
[3]
  Ki: < 0.0003 µM
[4]
  IC50: 0.025 µM
[5]
  Ki: 0.00019 µM
[6]
  IC50: 0.011 µM
[7]
  IC50: 0.013 µM
[8]
  Ki: < 0.001 µM

## CCOC(=O)CN(C=C1C(=O)Nc2ccc(S(=O)(=O)N(CC(C)C)CC(O)C(Cc3ccccc3)NC(=O)OC3COC4OCCC34)cc21)Cc1ccccc1 (centres unmarked) [Compound 138]
[1]
  IC50: 0.016 µM
[2]
  Ki: < 0.0001 µM
[3]
  Ki: < 0.0003 µM
[5]
  Ki: 0.00011 µM
[6]
  IC50: 0.015 µM
[7]
  IC50: 0.031 µM
[8]
  Ki: 0.0019 µM

## CC(C)CN(CC(O)C(Cc1ccccc1)NC(=O)OC1COC2OCCC12)S(=O)(=O)c1ccc2c(c1)C(=CNCc1ccc3ccccc3n1)C(=O)N2 (centres unmarked) [Compound 130]
[1]
  IC50: 0.027 µM
[2]
  Ki: 0.0001 µM
[3]
  Ki: < 0.0003 µM
[5]
  Ki: < 0.0001 µM
[6]
  IC50: 0.023 µM
[7]
  IC50: 0.032 µM
[8]
  Ki: < 0.001 µM

## CC(NCC(F)(F)F)=C1C(=O)Nc2ccc(S(=O)(=O)N(CC(C)C)CC(O)C(Cc3ccccc3)NC(=O)OC3COC4OCCC34)cc21 (centres unmarked) [Compound 45, [1-Benzyl-2-hydroxy-3-(isobutyl-{2-oxo-3-[1-(2,2,2-trifluoro-ethylamino)-ethylidene]-2,3-dihydro-1H-indole-5-sulfonyl}-amino)-propyl]-carbamic acid hexahydro-furo[2,3-b]furan-3-yl ester]
[1]
  IC50: 0.052 µM
[2]
  Ki: < 0.0001 µM
[3]
  Ki: < 0.0003 µM
[4]
  IC50: 0.026 µM
[5]
  Ki: < 0.0001 µM
[7]
  IC50: 0.013 µM
[8]
  Ki: 0.0031 µM
